Laboratory results from US11724992B2 (Novartis AG, priority 2017, dated 2023).

Test system: IL-1β production in PMA-differentiated THP-1 cells
Test: IL-1β production in PMA-differentiated THP-1 cells stimulated with gramicidin (hTHP-1 assay, 2% fetal bovine serum; Procedures 1-3)
Format: cell-based, human
Settings: hTHP-1 assay containing 2% fetal bovine serum; class symbols; read-out: hTHP-1 IC50 (Average IC50 of compounds in hTHP-1 assay)
Protocol: The following protocol is suitable for testing the activity of the compounds disclosed herein.
Procedure 1: IL-1β Production in PMA-Differentiated THP-1 Cells Stimulated with Gramicidin
THP-1 cells were purchased from the American Type Culture Collection and sub-cultured according to instructions from the supplier. Cells were cultured in complete RPMI 1640 (containing 10% heat inactivated FBS, penicillin (100 units/ml) and streptomycin (100 μg/ml)), and maintained in log phase prior to experimental setup. Prior to the experiment, compounds were dissolved in dimethyl sulfoxide (DMSO) to generate a 30 mM stock. The compound stock was first pre-diluted in DMSO to 3, 0.34, 0.042 and 0.0083 mM intermediate concentrations and subsequently spotted using Echo550 liquid handler into an empty 384-well assay plate to achieve desired final concentration (e.g. 100, 33, 11, 3.7, 1.2, 0.41, 0.14, 0.046, 0.015, 0.0051, 0.0017 μM). DMSO was backfilled in the plate to achieve a final DMSO assay concentration of 0.37%. The plate was then sealed and stored at room temperature until required.
THP-1 cells were treated with PMA (Phorbol 12-myristate 13-acetate) (20 ng/ml) for 16-18 hours. On the day of the experiment the media was removed and adherent cells were detached with trypsin for 5 minutes. Cells were then harvested, washed with complete RPMI 1640, spun down, and resuspended in RPMI 1640 (containing 2% heat inactivated FBS, penicillin (100 units/ml) and streptomycin (100 μg/ml). The cells were plated in the 384-well assay plate containing the spotted compounds at a density of 50,000 cells/well (final assay volume 50 μl). Cells were incubated with compounds for 1 hour and then stimulated with gramicidin (5 μM) (Enzo) for 2 hours. Plates were then centrifuged at 340 g for 5 min. Cell free supernatant (40 μL) was collected using a 96-channel PlateMaster (Gilson) and the production of IL-1β was evaluated by HTRF (cisbio). The plates were incubated for 18 h at 4° C. and read using the preset HTRF program (donor emission at 620 nm, acceptor emission at 668 nm) of the SpectraMax i3x spectrophotometer (Molecular Devices, software SoftMax 6). A vehicle only control and a dose titration of CRID3 (100-0.0017 μM) were run concurrently with each experiment.
Procedure 2: IL-1β Production in PMA-Differentiated THP-1 Cells Stimulated with Gramicidin
THP-1 cells were purchased from the American Type Culture Collection and sub-cultured according to instructions from the supplier. Prior to experiments, cells were cultured in complete RPMI 1640 (containing 10% heat inactivated FBS, penicillin (100 units/ml) and streptomycin (100 μg/ml)), and maintained in log phase prior to experimental setup. Prior to the experiment THP-1 were treated with PMA (Phorbol 12-myristate 13-acetate) (20 ng/ml) for 16-18 hours. Compounds were dissolved in dimethyl sulfoxide (DMSO) to generate a 30 mM stock. On the day of the experiment the media was removed and adherent cells were detached with trypsin for 5 minutes. Cells were then harvested, washed with complete RPMI 1640, spun down, resuspended in RPMI 1640 (containing 2% heat inactivated FBS, penicillin (100 units/ml) and streptomycin (100 μg/ml). The cells were plated in a 384-well plate at a density of 50,000 cells/well (final assay volume 50 μl). Compounds were first dissolved in assay medium to obtain a 5× top concentration of 500 μM. 10 step dilutions (1:3) were then undertaken in assay medium containing 1.67% DMSO. 5× compound solutions were added to the culture medium to achieve desired final concentration (e.g. 100, 33, 11, 3.7, 1.2, 0.41, 0.14, 0.046, 0.015, 0.0051, […]). Final DMSO concentration was at 0.37%. Cells were incubated with compounds for 1 hour and then stimulated with gramicidin (5 μM) (Enzo) for 2 hours. Plates were then centrifuged at 340 g for 5 min. Cell free supernatant (40 μL) was collected using a 96-channel PlateMaster (Gilson) and the production of IL-1β was evaluated by HTRF (cisbio). […]

## CC(C)(O)c1cccc(S(N)(=O)=NC(=O)Nc2c3c(c(F)c4c2CCC4)CCC3)c1 (single isomer, unassigned) [Example 129]
  IC50: 5000 to 30000 nM

## CC(C)c1cc(C#N)cc(C(C)C)c1NC(=O)N=S(N)(=O)c1ncc(C(C)(C)O)s1 (single isomer, unassigned) [Example 130]
  IC50: 40 to 200 nM

## CC(C)c1cc(C#N)cc(C(C)C)c1NC(=O)N=S(N)(=O)c1ncc(C(C)(C)O)s1 (single isomer, unassigned) [Example 131]
  IC50: 1000 to 5000 nM

## CC(C)c1cc(OC(F)F)cc(C(C)C)c1NC(=O)N=S(N)(=O)c1ncc(C(C)(C)O)s1 (single isomer, unassigned) [Example 136]
  IC50: 1000 to 5000 nM

## CC(C)c1cc(OC(F)F)cc(C(C)C)c1NC(=O)N=S(N)(=O)c1ncc(C(C)(C)O)s1 (single isomer, unassigned) [Example 137]
  IC50: 40 to 200 nM

## CC(C)c1cc(F)cc(C(C)C)c1NC(=O)N=S(N)(=O)c1ncc(C(C)(C)O)s1 (single isomer, unassigned) [Example 138]
  IC50: 1000 to 5000 nM

## CC(C)c1cc(F)cc(C(C)C)c1NC(=O)N=S(N)(=O)c1ncc(C(C)(C)O)s1 (single isomer, unassigned) [Example 139]
  IC50: 40 to 200 nM

## CC(C)c1cc(F)cc(C(C)C)c1NC(=O)N=S(N)(=O)c1cc(C(C)(C)O)cs1 (single isomer, unassigned) [Example 140]
  IC50: 8 to 40 nM

## CC(C)c1cc(F)cc(C(C)C)c1NC(=O)N=S(N)(=O)c1cc(C(C)(C)O)cs1 (single isomer, unassigned) [Example 141]
  IC50: 1000 to 5000 nM

## CC(C)(O)c1ccc(S(N)(=O)=NC(=O)Nc2c3c(c(Cl)c4c2CCC4)CCC3)c(F)c1 (single isomer, unassigned) [Example 142]
  IC50: 40 to 200 nM

## CC(C)(O)c1ccc(S(N)(=O)=NC(=O)Nc2c3c(c(Cl)c4c2CCC4)CCC3)c(F)c1 (single isomer, unassigned) [Example 143]
  IC50: 5000 to 30000 nM

## CC(C)(O)c1ncc(S(N)(=O)=NC(=O)Nc2c3c(c(C#N)c4c2CCC4)CCC3)s1 (single isomer, unassigned) [Example 146]
  IC50: 1000 to 5000 nM

## CC(C)(O)c1ncc(S(N)(=O)=NC(=O)Nc2c3c(c(C#N)c4c2CCC4)CCC3)s1 (single isomer, unassigned) [Example 147]
  IC50: 200 to 1000 nM

## Cc1oc(S(N)(=O)=NC(=O)Nc2c3c(c(F)c4c2CCC4)CCC3)cc1C(C)(C)O (single isomer, unassigned) [Example 148]
  IC50: < 8 nM

## Cc1oc(S(N)(=O)=NC(=O)Nc2c3c(c(F)c4c2CCC4)CCC3)cc1C(C)(C)O (single isomer, unassigned) [Example 149]
  IC50: 200 to 1000 nM

## CC(C)(O)c1cccc(S(N)(=O)=NC(=O)Nc2c3c(cc4c2CCC4)CCC3)c1 (single isomer, unassigned) [Example 150]
  IC50: 5000 to 30000 nM

## CC(C)(O)c1cccc(S(N)(=O)=NC(=O)Nc2c3c(cc4c2CCC4)CCC3)c1 (single isomer, unassigned) [Example 151]
  IC50: 200 to 1000 nM

## CC(C)(O)c1ccc(S(N)(=O)=NC(=O)Nc2c3c(c(F)c4c2CCC4)CCC3)c(F)c1 (single isomer, unassigned) [Example 152]
  IC50: 40 to 200 nM

## CC(C)(O)c1ccc(S(N)(=O)=NC(=O)Nc2c3c(c(F)c4c2CCC4)CCC3)c(F)c1 (single isomer, unassigned) [Example 153]
  IC50: 1000 to 5000 nM

## CN(C)Cc1ccc(S(N)(=O)=NC(=O)Nc2c3c(cc4c2CCC4)CCC3)c(F)c1 (single isomer, unassigned) [Example 154]
  IC50: 40 to 200 nM

## CN(C)Cc1ccc(S(N)(=O)=NC(=O)Nc2c3c(cc4c2CCC4)CCC3)c(F)c1 (single isomer, unassigned) [Example 155]
  IC50: 1000 to 5000 nM

## CC(C)c1cc(F)cc(C(C)C)c1NC(=O)N=S(N)(=O)c1ccc(C(C)(C)O)s1 (single isomer, unassigned) [Example 156]
  IC50: 200 to 1000 nM

## CC(C)c1cc(F)cc(C(C)C)c1NC(=O)N=S(N)(=O)c1ccc(C(C)(C)O)s1 (single isomer, unassigned) [Example 157]
  IC50: 5000 to 30000 nM

## CC(C)(O)c1ccc(S(N)(=O)=NC(=O)Nc2c3c(c(F)c4c2CCC4)CCC3)c(Cl)c1 (single isomer, unassigned) [Example 158]
  IC50: 1000 to 5000 nM

## CC(C)(O)c1ccc(S(N)(=O)=NC(=O)Nc2c3c(c(F)c4c2CCC4)CCC3)c(Cl)c1 (single isomer, unassigned) [Example 159]
  IC50: 5000 to 30000 nM

## CN(C)Cc1cccc(S(N)(=O)=NC(=O)Nc2c3c(cc4c2CCC4)CCC3)c1 (single isomer, unassigned) [Example 160]
  IC50: 200 to 1000 nM

## CN(C)Cc1cccc(S(N)(=O)=NC(=O)Nc2c3c(cc4c2CCC4)CCC3)c1 (single isomer, unassigned) [Example 161]
  IC50: 5000 to 30000 nM

## Cc1cc(S(N)(=O)=NC(=O)Nc2c3c(cc4c2CCC4)CCC3)ccc1C(C)(C)O (single isomer, unassigned) [Example 162]
  IC50: 200 to 1000 nM

## Cc1cc(S(N)(=O)=NC(=O)Nc2c3c(cc4c2CCC4)CCC3)ccc1C(C)(C)O (single isomer, unassigned) [Example 163]
  IC50: 5000 to 30000 nM

## Cc1nc(C(C)(C)O)sc1S(N)(=O)=NC(=O)Nc1c2c(cc3c1CCC3)CCC2 (single isomer, unassigned) [Example 164]
  IC50: 8 to 40 nM

## Cc1nc(C(C)(C)O)sc1S(N)(=O)=NC(=O)Nc1c2c(cc3c1CCC3)CCC2 (single isomer, unassigned) [Example 165]
  IC50: 1000 to 5000 nM

## CC(C)(O)c1cc(F)cc(S(N)(=O)=NC(=O)Nc2c3c(c(F)c4c2CCC4)CCC3)c1 (single isomer, unassigned) [Example 170]
  IC50: 1000 to 5000 nM

## CC(C)(O)c1cc(F)cc(S(N)(=O)=NC(=O)Nc2c3c(c(F)c4c2CCC4)CCC3)c1 (single isomer, unassigned) [Example 171]
  IC50: 200 to 1000 nM

## Cc1cc(S(N)(=O)=NC(=O)Nc2c(C(C)C)cc(OC(F)F)cc2C(C)C)sc1C(C)(C)O (single isomer, unassigned) [Example 172]
  IC50: 200 to 1000 nM

## Cc1cc(S(N)(=O)=NC(=O)Nc2c(C(C)C)cc(OC(F)F)cc2C(C)C)sc1C(C)(C)O (single isomer, unassigned) [Example 173]
  IC50: 1000 to 5000 nM

## CC(C)(O)c1cc(S(N)(=O)=NC(=O)Nc2c3c(c(F)c4c2CCC4)CCC3)ccc1F (single isomer, unassigned) [Example 174]
  IC50: 200 to 1000 nM

## CC(C)(O)c1cc(S(N)(=O)=NC(=O)Nc2c3c(c(F)c4c2CCC4)CCC3)ccc1F (single isomer, unassigned) [Example 175]
  IC50: 1000 to 5000 nM

## Cc1nc(C(C)(C)O)sc1S(N)(=O)=NC(=O)Nc1c2c(c(F)c3c1CCC3)CCC2 (single isomer, unassigned) [Example 176]
  IC50: 8 to 40 nM

## Cc1nc(C(C)(C)O)sc1S(N)(=O)=NC(=O)Nc1c2c(c(F)c3c1CCC3)CCC2 (single isomer, unassigned) [Example 177]
  IC50: 1000 to 5000 nM

## CC(C)(O)c1ccc(S(N)(=O)=NC(=O)Nc2c3c(cc4c2CCC4)CCC3)cc1F (single isomer, unassigned) [Example 178]
  IC50: 5000 to 30000 nM

## CC(C)(O)c1ccc(S(N)(=O)=NC(=O)Nc2c3c(cc4c2CCC4)CCC3)cc1F (single isomer, unassigned) [Example 179]
  IC50: 1000 to 5000 nM

## CNS(=O)(=NC(=O)Nc1c2c(c(F)c3c1CCC3)CCC2)c1cc(C(C)(C)O)cs1 (single isomer, unassigned) [Example 180]
  IC50: 1000 to 5000 nM

## CNS(=O)(=NC(=O)Nc1c2c(c(F)c3c1CCC3)CCC2)c1cc(C(C)(C)O)cs1 (single isomer, unassigned) [Example 181]
  IC50: 5000 to 30000 nM
